{
  "source": "patent US6953832B2",
  "about": "“Dental materials based on polyfunctional amides” (Ivoclar Vivadent AG, priority 2001, dated 2005)",
  "test": "Hydrolysis stability of monomer in water/ethanol/phosphoric acid (1H-NMR)",
  "type": "physicochemical",
  "source_text": "A major advantage of the amides according to the invention is to be seen in their hydrolysis stability. Aqueous solutions of the amides are thus also storage-stable in the presence of acidic compounds. As a linking of the monomer components via covalent C—C single bonds takes place on polymerization, this also applies to the corresponding polymers.",
  "data": [
    {"substance": "Glycerine dimethacrylate", "values": [
      {"measurement": "Hydrolysis stability", "setting": "20 wt.-% solution in 1:1:1 water, ethanol and 10% phosphoric acid, 37° C., 4 weeks, 1H-NMR", "value": "−"},
      {"measurement": "Hydrolysis stability in the presence of acid (in words)", "setting": "aqueous solution, in the presence of phosphoric acid / acidic compounds", "value": "completely split to form glycerine and methacrylic acid"}
    ]}
  ]
}
